Data as given in patent US20240368090A1, “SOLID STATE FORMS OF D[…] PROCESS FOR THEIR PREPARATION” (REDDY’S LABORATORIES LIMITED, priority 2023, published 2024).

Assay: physical and chemical stability under standard stability conditions
Type: physicochemical
Procedure: In another aspect of the present disclosure, the crystalline form DP-9 of Daprodustat which is physically & chemically stable under standard stability conditions like 25° C.-60% RH, 40° C.-75% RH and 2-8° C. for at least 3 months.

Measured: physically & chemically stable for at least

O=C(O)CNC(=O)C1C(=O)N(C2CCCCC2)C(=O)N(C2CCCCC2)C1=O [Form DP-9]
at least 3 months: 2-8° C. | 25° C.-60% RH | 40° C.-75% RH
